Data from PubChem BioAssay (NCI).
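Step 1: Grow cells in 96-well plates. Step 2: Expose to compound for 48 hours at 5 concentrations. Step 3: Interpolate endpoints linearly; if unreached, use highest concentration. GI50 is the concentration that inhibits growth by half. Definition used: TGI = concentration required for complete inhibition of growth.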

Assays:
Test in all cases: DTP human tumour cell line panel, 48 h; in the data active means GI50 below about 0.43 µM; inactive means the rest
[1] = test system: LOX IMVI melanoma
[2] = test system: SK-MEL-5 melanoma
[3] = test system: BT-549 breast
[4] = test system: K-562 leukemia
[5] = test system: HL-60(TB) leukemia
[6] = test system: RXF 393 renal
[7] = test system: TK-10 renal
[8] = test system: NCI-H226 lung
[9] = test system: NCI/ADR-RES ovarian
[10] = test system: MDA-MB-435
[11] = test system: SR leukemia
[12] = test system: OVCAR-3 ovarian
[13] = test system: SK-MEL-28 melanoma
[14] = test system: ACHN renal
[15] = test system: HCT-116 colon
[16] = test system: HOP-62 NSCLC
[17] = test system: OVCAR-8 ovarian
[18] = test system: OVCAR-4 ovarian
[19] = test system: HOP-92 NSCLC
[20] = test system: UACC-257 melanoma
[21] = test system: IGROV1 ovarian
[22] = test system: SNB-19 CNS
[23] = test system: NCI-H23 lung
[24] = test system: CAKI-1 renal
[25] = test system: NCI-H460 lung
[26] = test system: T-47D breast
[27] = test system: 786-0 renal
[28] = test system: MCF7 breast
[29] = test system: MOLT-4 leukemia

O=C1NN(C(=O)c2ccccc2)C(c2ccc(Cl)c(Cl)c2)=C/C1=C\c1ccccc1[N+](=O)[O-]
inactive: GI50 [1] 1140 nM | GI50 [2] 1170 nM | GI50 [3] 1180 nM | GI50 [4] 1900 nM | GI50 [5] 2010 nM | GI50 [6] 1670 nM | GI50 [7] 4260 nM | GI50 [8] 1440 nM | GI50 [9] 2290 nM | GI50 [10] > 6750 nM | GI50 [11] 2070 nM | GI50 [12] 2400 nM | GI50 [13] 2720 nM | GI50 [14] 3090 nM | GI50 [15] 2030 nM | GI50 [16] 3440 nM | GI50 [17] 2630 nM | GI50 [18] 2260 nM | GI50 [19] 1430 nM | GI50 [20] 5230 nM | GI50 [21] 1590 nM | GI50 [23] 1040 nM | GI50 [24] 2270 nM | GI50 [25] 1780 nM | GI50 [26] 2250 nM | GI50 [27] 2200 nM | GI50 [28] 1820 nM | GI50 [29] 2040 nM
3490 nM: TGI [1]
active: GI50 [22] 339 nM
2190 nM: TGI [2]
5400 nM: TGI [3]
5350 nM: TGI [6]
> 6750 nM: TGI [4] | TGI [5] | TGI [7] | TGI [8] | TGI [9] | TGI [10] | TGI [11] | TGI [12] | TGI [13] | TGI [14] | TGI [15] | TGI [16] | TGI [17] | TGI [18] | TGI [19] | TGI [20] | TGI [21] | TGI [22] | TGI [24] | TGI [26] | TGI [27] | TGI [28] | TGI [29]
6500 nM: TGI [23]
5200 nM: TGI [25]
